Experimental data as given in the supplement of paper PMC10307832.

Assays:
Experiment in all cases: relative viability (nuclei count vs DMSO), 5 days (fraction); higher = more cells survive
[1] = compound: C1CCC(CC1)N(CCNCCC2=C3C(=C(C=C2)O)NC(=O)CO3)C(=O)CCNCCC4=CC(=C(C=C4)Cl)Cl [AZ505] + Cc1cc(Nc2cc(N3CCN(C)CC3)nc(Sc3ccc(NC(=O)C4CC4)cc3)n2)n[nH]1 [Tozasertib] (partner 0.1 µM)
Procedure, shortened: (§1)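 Relative viability was taken as the ratio of nuclei in treated wells to nuclei in vehicle wells. Lung cancer cell lines in 1536-well plates received compounds by pin tool one day after seeding, either one drug alone or a fixed anchor-drug dose plus five library-drug doses (not always all listed) in √10 steps. Nuclei were counted on 4× images after 5 days of treatment, and values are medians of duplicate plates.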

[2] = compound: C1CCC(CC1)N(CCNCCC2=C3C(=C(C=C2)O)NC(=O)CO3)C(=O)CCNCCC4=CC(=C(C=C4)Cl)Cl [AZ505] + O=C(c1cc(Cc2n[nH]c(=O)c3ccccc23)ccc1F)N1CCN(C(=O)C2CC2)CC1 [Olaparib] (partner 8 µM)
Procedure, shortened: as §1

[3] = compound: C1CCC(CC1)N(CCNCCC2=C3C(=C(C=C2)O)NC(=O)CO3)C(=O)CCNCCC4=CC(=C(C=C4)Cl)Cl [AZ505] + CC(C)C[C@H](NC(=O)[C@H](Cc1ccccc1)NC(=O)c1cnccn1)B(O)O [Bortezomib] (partner 0.002 µM)
Procedure, shortened: as §1

[4] = compound: C1CCC(CC1)N(CCNCCC2=C3C(=C(C=C2)O)NC(=O)CO3)C(=O)CCNCCC4=CC(=C(C=C4)Cl)Cl [AZ505] + CS(=O)(=O)CCNCc1ccc(-c2ccc3ncnc(Nc4ccc(OCc5cccc(F)c5)c(Cl)c4)c3c2)o1 [Lapatinib] (partner 2 µM)
Procedure, shortened: as §1

Row | Cell Line | relative viability ([1]; first compound 0.08 µM) | relative viability ([1]; first compound 0.253 µM) | relative viability ([1]; first compound 0.8 µM) | relative viability ([1]; first compound 2.53 µM) | relative viability ([1]; first compound 8 µM) | relative viability ([2]; first compound 0.08 µM) | relative viability ([2]; first compound 0.253 µM) | relative viability ([2]; first compound 0.8 µM) | relative viability ([2]; first compound 2.53 µM) | relative viability ([2]; first compound 8 µM) | relative viability ([3]; first compound 0.08 µM) | relative viability ([3]; first compound 0.253 µM) | relative viability ([3]; first compound 0.8 µM) | relative viability ([3]; first compound 2.53 µM) | relative viability ([3]; first compound 8 µM) | relative viability ([4]; first compound 0.08 µM) | relative viability ([4]; first compound 0.253 µM) | relative viability ([4]; first compound 0.8 µM) | relative viability ([4]; first compound 2.53 µM) | relative viability ([4]; first compound 8 µM)
1 | NCI-H2342 | 0.441 | 0.625 | 0.559 | 0.509 | 0.618 | 0.428 | 0.463 | 0.491 | 0.485 | 0.488 |  |  |  |  |  |  |  |  |  | 
2 | HCC-15 | 0.363 | 0.299 | 0.36 | 0.344 | 0.322 | 0.639 | 0.723 | 0.75 | 0.73 | 0.736 | 0.973 | 1.08 | 1.01 | 0.989 | 1.02 | 0.741 | 0.809 | 0.861 | 0.805 | 0.871
3 | A-427 | 0.211 | 0.177 | 0.194 | 0.187 | 0.216 | 0.765 | 0.704 | 0.724 | 0.721 | 0.732 | 0.928 | 0.978 | 1.03 | 0.917 | 0.997 | 1.1 | 1.07 | 0.961 | 1.03 | 0.998
4 | NCI-H2228 | 0.23 | 0.279 | 0.164 | 0.206 | 0.236 | 0.669 | 0.627 | 0.524 | 0.863 | 0.481 | 0.907 | 1.15 | 0.856 | 0.864 | 0.828 | 1.09 | 0.957 | 0.939 | 0.885 | 1.11
5 | NCI-H1734 | 0.259 | 0.276 | 0.243 | 0.219 | 0.215 | 0.603 | 0.673 | 0.613 | 0.63 | 0.641 | 0.78 | 0.978 | 0.976 | 0.936 | 0.861 | 0.991 | 1 | 1.02 | 1.01 | 1
6 | SK-LU-1 | 0.312 | 0.302 | 0.242 | 0.345 | 0.235 | 0.268 | 0.364 | 0.349 | 0.314 | 0.326 | 0.703 | 0.561 | 0.778 | 0.923 | 0.761 | 0.477 | 0.651 | 0.578 | 0.537 | 0.712
7 | PC-14 | 0.549 | 0.594 | 0.586 | 0.509 | 0.554 | 0.302 | 0.255 | 0.248 | 0.324 | 0.241 | 0.776 | 0.877 | 0.882 | 0.768 | 0.841 | 0.316 | 0.296 | 0.336 | 0.411 | 0.319
8 | NCI-H1915 | 0.422 | 0.447 | 0.432 | 0.416 | 0.399 | 0.259 | 0.272 | 0.247 | 0.272 | 0.257 | 0.86 | 0.968 | 0.861 | 0.87 | 0.978 | 1.01 | 1.07 | 0.985 | 1.05 | 1.04
9 | NCI-H1666 | 0.629 | 0.613 | 0.534 | 0.525 | 0.584 | 0.736 | 0.812 | 0.721 | 0.731 | 0.764 | 0.799 | 0.708 | 0.658 | 0.778 | 0.705 | 0.532 | 0.544 | 0.531 | 0.614 | 0.518
10 | HCC-366 | 0.128 | 0.113 | 0.152 | 0.132 | 0.0879 | 0.277 | 0.439 | 0.315 | 0.412 | 0.406 | 0.933 | 1.01 | 1.02 | 0.952 | 1.11 | 1.01 | 1.01 | 0.903 | 0.986 | 1.06
11 | SK-MES-1 | 0.853 | 0.863 | 0.898 | 0.785 | 0.884 | 0.682 | 0.694 | 0.662 | 0.603 | 0.719 |  |  |  |  |  | 0.406 | 0.434 | 0.499 | 0.473 | 0.445
12 | NCI-H661 | 0.356 | 0.377 | 0.351 | 0.32 | 0.367 | 0.732 | 0.751 | 0.728 | 0.709 | 0.727 | 0.798 | 1.01 | 0.716 | 0.787 | 0.732 | 0.468 | 0.502 | 0.447 | 0.477 | 0.499
13 | PC-3 [JPC-3] | 0.83 | 0.919 | 0.87 | 0.848 | 0.867 | 0.918 |  | 0.944 | 1.01 | 1.15 | 0.735 | 0.768 | 0.684 | 0.775 | 0.771 | 0.456 | 0.455 | 0.476 | 0.426 | 0.495
14 | NCI-H1623 | 0.454 | 0.457 | 0.425 | 0.445 | 0.443 |  |  |  |  |  |  |  |  |  |  |  |  |  |  | 
15 | Calu-6 |  |  |  |  |  | 0.543 | 0.59 | 0.525 | 0.504 | 0.608 | 0.969 | 1.07 | 0.906 | 0.915 | 1.12 | 0.925 | 1.17 | 1.07 | 1.02 | 1.11
16 | LC-2-ad | 0.478 | 0.415 | 0.436 | 0.411 | 0.413 | 0.683 | 0.696 | 0.648 | 0.713 | 0.741 | 1 | 1.04 | 0.915 | 1.01 | 1.03 | 0.949 | 0.957 | 0.92 | 1 | 0.921
17 | CAL-12T | 0.298 | 0.426 | 0.308 | 0.303 | 0.302 | 0.588 | 0.777 | 0.736 | 0.706 | 0.696 | 0.946 | 0.82 | 0.835 | 0.936 | 1.01 | 0.637 | 0.534 | 0.537 | 0.625 | 0.728
